The values that follow come from the SangsterLogP compilation.

In the case of `CNC12CCC(CN)CC1Cc1ccccc12` (stereo not given), the logP turned out to be 1.84.
With `NC12CCCC1Cc1ccccc12` (stereo not given) the figure was 2.58; with `CNC12CCCCC1Cc1ccc(OC)cc12` (stereo not given), 3.54.
For `CNCC1CCC2(NC)c3ccccc3CC2C1` (stereo not given), the logP was determined as 2.48.
As to `CNC12CCCCC1Cc1ccccc12` (stereo not given), the logP came to 3.37.
For `CNC12CCCCC1Cc1cc(OC)ccc12` (stereo not given) the value was 3.51; for `CNC12CCCCCC1Cc1ccccc12` (stereo not given), 3.77; for `CNC12c3ccccc3CC1CCCC2C` (stereo not given), 3.44.
For `NC12CCC(CO)CC1Cc1ccccc12` (stereo not given) the value was 0.93; for `CNC12CCCCC1c1ccccc1C2` (stereo not given), 3.43; for `C=C1c2ccccc2C2(NC)CCCCC12` (stereo not given), 3.79.
The compound `CNC12CCC(CO)CC1Cc1ccccc12` (stereo not given) returned a logP of 1.41.
In turn, `NC12CCCCC1c1ccccc1C2` (stereo not given) gave a logP of 2.94.
For `CCNC12c3ccccc3CC1CCCC2C` (stereo not given) the value was 3.8; for `CNC12CC=CCC1c1ccccc1C2` (stereo not given), 3.28.

A word on the logP: it is the decadic logarithm of the partition coefficient of the neutral form, usually between octanol and water. Higher therefore signals higher lipophilicity.
